Experiments:
[1] = Body weight of R6/2 mice under chronic treatment; format: in vivo, mouse
Description: Study Summary-A total of 46 male R6/2 mice and 15 male wild-type littermate control mice (WT) were used in the study. The mice were genotyped and the R6/2 mice were divided into different treatment groups based on their pre-treatment body weight. The treatment with Compound (Ia) (0.5 or 5 mg/kg; 10 ml/kg, intraperitoneally (i.p.), QD) or Vehicle (10 ml/kg, i.p., QD) was started at 4 weeks of age. Body weights were measured before the treatment onset and continued twice a week until the end of the study. Fine motor kinematic analysis and rotarod test were performed at 10 weeks of age and the open field activity and clasping behavior were measured at 12 weeks of age for all mice. At 8 and 12 weeks of age the glucose uptake was measured by ^18F-FDG PET and the striatal metabolites were measured using MR spectroscopy for 9-10 mice per group. At 13 weeks of age 9-10 mice per group were subjected to tissue sample collection, and the brain and blood samples were collected. The blood samples were used to prepare peripheral blood mononuclear cells (PBMCs) on which the flow cytometry/luminescence analysis was performed for following assays: mitochondrial reactive oxygen species (ROS) (MitoSox), and ATP levels (Cell TiterGlow). […] Body Weights-Body weights were measured at 4 weeks of age (pre-treatment) and twice a week until the end of the study. […]

[2] = tested on: Peripheral Blood Mononuclear Cells (PBMC); assay: CellTiter-Glo 2.0 ATP level assay in PBMCs of treated mice; format: in vivo, mouse; conditions: R6/2 mice, 0.5 mg/kg / 5 mg/kg i.p. QD, PBMCs collected at 13 weeks of age
Description: Euthanasia & Sample Collection—At 13 weeks of age, 9 mice per group were euthanized by deep anesthesia with sodium pentobarbital (180 mg/kg). The remaining mice were euthanized and any samples were not collected, except the tail and ear samples. A terminal blood sample (as much as possible) was collected by cardiac puncture into a syringe. The whole blood was placed in Li-Hep tube at RT and used immediately for preparation of PBMCs. The whole brain was collected and fresh frozen in liquid nitrogen and stored at −80° C. Blood was collected also from extra animals as staining controls for the flow cytometry assays (n=3 extra animals per day). […]
PBMC Extraction—Whole blood (approximately 400-500 μL) was stored at room temperature (RT) before the start of the PBMC isolations. […] Right before measurement 1 μL of propidium iodide was added and the cell number and viability was determined by MACSquant Analyzer 10 flow cytometer. […]
The cells were analyzed immediately after the staining using the MACSQuant Analyzer 10 (Miltenyi Biotec) and Cytation 3 (Cell titerglow). […]
ATP Levels: CellTiter-Glo 2.0® Assay—The CellTiter-Glo® 2.0 Assay provides a homogeneous method to determine the number of viable cells in culture by quantitating the amount of ATP present, which indicates the presence of metabolically active cells. […]
• 1. […] Place 50,000 cells/well white walled luminescence suitable plate in DPBS. • 3. […]

Cc1cc(O)cc(C)c1C[C@H](NC(=O)[C@H](N)CCCNC(=N)N)C(=O)N[C@@H](CCCCN)c1nc(Cc2ccccc2)no1.Cl.Cl [Compound (Ia), (R)-2-amino-N—((S)-1-(((S)-5-amino-1-(3-benzyl-1,2,4-oxadiazol-5-yl)pentyl)amino)-3-(4-hydroxy-2,6-dimethylphenyl)-1-oxopropan-2-yl)-5-guanidinopentanamide]
body weight compared to vehicle treated R6/2 mice ([1]; 5 mg/kg i.p. QD): non-significantly higher level
body weight, treated R6/2 groups vs vehicle treated R6/2 mice ([1]; 0.5 or 5 mg/kg i.p. QD from 4 to 13 weeks of age, p>0.05, Mixed-effects model (REML)): no significant differences
ATP levels (Cell Titer Glow) in PBMCs, R6/2+Vehicle vs treated R6/2 [2]: no significant differences
